53 molecules from PubChem BioAssay (NCI) can be followed below.

Values joined by “and” are separate entries in the source; they are usually repeats but may differ in a detail not shown here. Equal entries are not always repeated.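 96-well plates; 48 h exposure; 5 concentrations. Endpoints by linear interpolation between flanking doses. Not reached: highest tested concentration assigned. The concentration for 50% growth inhibition is given as GI50. TGI marks complete inhibition of growth.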 Where only a bound is given, the exact number is not on record here.

One experiment concerns MDA-MB-435. The experiment in a line: inhibition of tumour cell growth, NCI panel, 48 h.
Molecule `CCOC(=O)c1c[nH]c2oc(/C=N/N3CC(CN4CCOCC4)OC3=O)cc2c1=O` (centres undefined) came in with a TGI above 100 µM.
On to `CCC(C)(C)c1ccc(OCCCCCCN2CCNCC2)cc1`, for which the GI50 was 1.54 µM and the TGI stood at 3.09 µM.
On to `O=C(Nc1ccc(-n2cc(-c3ccncc3)c(-c3ccc(Cl)c(O)c3)n2)cc1)Nc1ccc(Cl)c(C(F)(F)F)c1`, for which the GI50 is 1.32 µM and the TGI was found to be 2.91 µM.
The corresponding values for `Cc1cc(S(=O)(=O)N/N=C(\Sc2cc(Cl)c(C)cc2S(N)(=O)=O)c2ccc(Cl)cc2)c(Cl)cc1Cl` are above 100 µM and above 100 µM.
Take `COc1ccc(C(=O)COc2cccc(/C=C3\Oc4ccc5ccccc5c4C3=O)c2)cc1`: the GI50 was 5.24 µM and the TGI is 20 µM.
As for `COc1ccc(-c2oc3cc(O)c(OC)c(O)c3c(=O)c2OC)cc1O`, the GI50 is 0.025 µM and the TGI was determined as 0.0674 µM.
The molecule `Cc1c(C2=C(Br)C(=O)N(C)C2=O)c(=O)n(C)c(=O)n1C` registered a TGI of 58.6 µM.
Same read-out and setting: for `N#CC(=NCCO)C1=C(O)c2ccccc2C1=O` the value was above 100 µM.
Take `NC(CS/C(Cl)=C/Cl)C(=O)O` (centres undefined): the GI50 was 9.25 µM and the TGI was determined as 31.5 µM.
On the same counts, the results for `CCn1c(CO)nn(-c2cc(O[C@@H](C)C(F)(F)F)c(C(=O)Nc3c(F)cccc3Cl)cc2F)c1=O` are below 0.0176 µM and above 100 µM.
Molecule `CC1CCC(=O)C(C(=O)CC2CC(=O)NC(=O)C2)C1` (centres undefined) had a TGI above 100 µM.
In the case of `O=C(Nc1ccc(CO)cc1)c1coc2ccccc2c1=O`, the GI50 was above 100 µM and the TGI is above 100 µM.
With `Cc1cc(N/N=C/c2nc(-c3ccc(Br)cc3)oc2C)c2cc(Br)ccc2n1`, the GI50 is 2.25 µM and the TGI was 5.34 µM.
The corresponding values for `CC(=O)/C=C/c1ccc(C#Cc2ccccc2)s1` are 13.8 µM and 29.5 µM.
On the same counts, the results for `COc1ccc2c(c1)C(C)Cc1c(ncnc1-n1c(C)nc3ccccc31)N2C` (centres undefined) are 0.315 µM and 1.89 µM.
In turn, `CC(C)OC(=O)NNc1cc(Cl)ccc1Cl` gave a TGI above 100 µM.
In the case of `Cc1cc(C2CC(O)C(CO)O2)cc2c(=O)[nH]c(N)nc12` (centres undefined), the GI50 is above 100 µM and the TGI is above 100 µM.
`COc1ccc2[nH]c3c4c(ccc3c2c1)C(=O)C=CC4=O` yielded a TGI of 66.5 µM.
Take `COc1cc(C2=C(c3cn(C)c4ccccc34)COC2=O)cc(OC)c1OC`: the GI50 is 0.0244 µM and the TGI came out at 0.0875 µM.
Turning to `COc1cc2c(cc1O)C1Cc3ccc(OC)c(O)c3C(C2)N1C` (centres undefined), the TGI was above 100 µM.
On to `CCOC(=O)CNC(=O)c1ccccc1Nc1ccnc(C(F)(F)F)c1`, for which the GI50 was 36.9 µM and the TGI was above 100 µM.
In the case of `COc1ccc2c(c1)[C@@]13CCCC[C@H]1[C@@H](C2)N(C)CC3=O`, the TGI was determined as 42.7 µM.
Still for that read-out and setting: the figure for `N=C(N)SCc1cccc(-c2nc3ccccc3c(=O)o2)c1` is above 100 µM.
With `COc1cc2c(c(OC)n1)[C@]1(O)[C@H](O)[C@H](CN(C)C)[C@@H](c3ccccc3)[C@]1(c1ccc(C#N)cc1)O2`, the GI50 is 0.0163 µM and 0.0143 µM; the TGI was 1.06 µM and 8.13 µM.
`CC(C)N=c1cc2n(-c3ccc(Cl)cc3)c3ccccc3nc-2cc1Nc1ccc(Cl)cc1`: the GI50 was 1.04 µM and 1.8 µM; the TGI was 2.74 µM and 4.46 µM.
Consider `C=CCSS/C=C/CS(=O)CC=C` (centres undefined), for which the TGI is 37.3 µM.
In the case of `Cc1cc2c(cc1Cl)SC(=Nc1ccc(Cl)cc1)N(S(=O)(=O)c1ccccc1)S2(=O)=O`, the GI50 is 5.18 µM and the TGI came out at 19.6 µM.
As for `COc1ccc(Nc2c3ccccc3nc3occ(Cl)c23)cc1`, the GI50 is below 0.01 µM and the TGI was below 0.0317 µM.
On the same counts, the results for `O=C(/C=C/c1cc(CN2CCOCC2)c(O)c2ncccc12)c1cc(CN2CCOCC2)c(O)c2ncccc12` are below 0.0211 µM and above 100 µM.
The corresponding values for `Cn1cc(C2=C(c3cn(CCCCCN)c4ccccc34)C(=O)NC2=O)c2ccccc21` are 2.4 µM and above 25 µM.
The corresponding values for `C=C1C(=O)O[C@H]2[C@H]1CC/C(COC(=O)c1ccc(Cl)nc1)=C\CC[C@@]1(C)O[C@@H]21` are 2.14 µM and 6.81 µM.
With `Cc1cc[c-]cc1.Fc1c[c-]c(-c2ccccn2)c(F)c1.[Pt+2].c1ccc(P(C[PH+](c2ccccc2)c2ccccc2)c2ccccc2)cc1`, the GI50 was 2.18 µM and the TGI is 6.2 µM.
For the molecule `COc1cc2ncn(-c3cc(OCCc4ccccc4)c(C(N)=O)s3)c2cc1OC`, the GI50 is 9.55 µM and the TGI was above 25 µM.
Turning to `CCCCC1(CN2CCOCC2)S/C(=N/c2nc(CC(=O)OCC)cs2)NC1=O` (centres undefined), the GI50 was 30.3 µM and the TGI is above 100 µM.
With `COc1ccc(OC)c2c(/C=C/c3ccc(N(C)C)cc3)ccnc12`, the TGI was above 10 µM.
Take `C=C1C(=O)O[C@H]2/C=C(/C)C3=CC(=O)[C@@](C)(C[C@@H](OC(=O)/C(C)=C\C)C12)O3` (some centres undefined): the TGI was 6.02 µM.
As to `O=C(CSC(c1ccccc1)c1ccccc1)N/N=C/c1ccc(Cl)cc1Cl`, the GI50 was 29.6 µM and the TGI was determined as 79.2 µM.

Another experiment relates to XF 498 CNS. The experiment in a line: inhibition of tumour cell growth, NCI panel, 48 h.
`CC(=O)c1sc(-c2nc(C)c(C(=O)/C=C\c3ccc(/C=C\C(=O)c4sc(-c5nc(C)c(C(C)=O)s5)nc4C)cc3)s2)nc1C`: the TGI is above 100 µM.
In the case of `COC(=O)/C(C)=C/[N+](=O)[O-]`, the TGI was determined as 27.5 µM.
Same read-out and setting: for `Cc1ccc(C2(O)CC(c3ccc([N+](=O)[O-])o3)=NN2C(=O)COc2ccc(Cl)cc2)cc1` (centres undefined) the value was 26.9 µM.
Turning to `CC1=NN(C(=O)CC(=O)N(C(=O)c2ccccc2Cl)c2ccc(C)cc2)C(=O)C1N=Nc1ccc([N+](=O)[O-])cc1` (centres undefined), the TGI was above 100 µM.
On the same count and under the same terms, the figure for `CC(C)(C=O)CC(C#N)/C(=N\NC(N)=O)C(=O)Nc1ccccc1C(N)=O` (centres undefined) is above 100 µM.
Same read-out and setting: the figure for `COC(=O)OCC1OC(N2C(=O)NC(=O)C(Br)C2N=[N+]=[N-])CC1OC(=O)OC` (centres undefined) is above 100 µM.
Turning to `C[C@@]12CCCc3coc(c31)C(=O)c1cc3c(cc12)C(=O)C=CC3=O`, the GI50 is above 1 µM; the TGI was > 1 µM and 29.6 µM.
Molecule `C=CCNC(=O)N(CCC)CCCCC(NC(C)=O)C(=O)NCc1ccccc1` (centres undefined) came in with a TGI above 100 µM.
For `O=C1CC2C(=O)N(Cc3ccccc3)C1C=C2S(=O)(=O)c1ccccc1` (centres undefined), the TGI is above 100 µM.
As for `COC(=O)CCC(=O)CC1CC(=O)C2CCCN12` (centres undefined), the TGI was above 100 µM.
Same read-out and setting: the figure for `Cc1cc(NS(=O)(=O)c2ccc(Nc3c4ccccc4nc4c(C(=O)NCCN(C)C)cccc34)cc2)no1` is above 100 µM.

For a further experiment, the system named is LXFL 529 NSCLC. The experiment can be described thus: inhibition of tumour cell growth, NCI panel, 48 h.
Consider `CN1NC(=Nc2ccccc2)Sc2c1cnn(-c1ccccc1)c2=O`, for which the TGI was above 100 µM.
Regarding `C1C[OH+]CCNCC[OH+]CC[OH+]CCN1.[Cl-].[Pt+4]`, the GI50 was above 100 µM and the TGI is above 100 µM.
As to `CC(=O)c1sc(-c2nc(C)c(C(=O)/C=C\c3ccc(/C=C\C(=O)c4sc(-c5nc(C)c(C(C)=O)s5)nc4C)cc3)s2)nc1C`, the TGI was above 100 µM.
On the same count and under the same terms, the figure for `COC(=O)/C(C)=C/[N+](=O)[O-]` is 27.9 µM; for `Cc1ccc(C2(O)CC(c3ccc([N+](=O)[O-])o3)=NN2C(=O)COc2ccc(Cl)cc2)cc1` (centres undefined) it is 10.9 µM.
Consider `CC1=NN(C(=O)CC(=O)N(C(=O)c2ccccc2Cl)c2ccc(C)cc2)C(=O)C1N=Nc1ccc([N+](=O)[O-])cc1` (centres undefined), for which the TGI is above 100 µM.
`CC(C)(C=O)CC(C#N)/C(=N\NC(N)=O)C(=O)Nc1ccccc1C(N)=O` (centres undefined) displayed a TGI above 100 µM.
On the same count and under the same terms, for `COC(=O)OCC1OC(N2C(=O)NC(=O)C(Br)C2N=[N+]=[N-])CC1OC(=O)OC` (centres undefined) the value was above 100 µM; for `COc1ccc2[nH]c3c4c(ccc3c2c1)C(=O)C=CC4=O`, 14.8 µM.
As for `C[C@@]12CCCc3coc(c31)C(=O)c1cc3c(cc12)C(=O)C=CC3=O`, the GI50 is above 1 µM; the TGI is > 1 µM and 28.2 µM.
In the case of `C=CCNC(=O)N(CCC)CCCCC(NC(C)=O)C(=O)NCc1ccccc1` (centres undefined), the TGI is above 100 µM.
Same read-out and setting: for `Nc1ccn(C2(CO)C=C(CO)C(O)C2O)c(=O)n1` (centres undefined) the value was above 25.8 µM; for `O=C1CC2C(=O)N(Cc3ccccc3)C1C=C2S(=O)(=O)c1ccccc1` (centres undefined), above 100 µM.
Turning to `N.N.N.N.[Cl-].[Co+3].[N-]=[N+]=[N-].[N-]=[N+]=[N-]`, the GI50 was above 100 µM and the TGI was above 100 µM.
Take `COC(=O)CCC(=O)CC1CC(=O)C2CCCN12` (centres undefined): the TGI was above 100 µM.
In turn, `Cc1cc(NS(=O)(=O)c2ccc(Nc3c4ccccc4nc4c(C(=O)NCCN(C)C)cccc34)cc2)no1` registered a TGI above 100 µM.
Still for that read-out and setting: the figure for `Nc1nc(CCl)nc(Nc2ccccc2)n1` is 28.9 µM.
